In PubChem BioAssay (NCI):
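48-hour exposure; five concentrations; linearly interpolated endpoints. TGI marks complete inhibition of growth.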

Key:
Assay in all cases: inhibition of tumour cell growth, NCI panel, 48 h
[1] = tested on: EKVX NSCLC
[2] = tested on: NCI/ADR-RES ovarian
[3] = tested on: SR leukemia
[4] = tested on: DU-145 prostate
[5] = tested on: NCI-H460 lung
[6] = tested on: OVCAR-4 ovarian
[7] = tested on: SK-MEL-2 melanoma
[8] = tested on: RXF 393 renal
[9] = tested on: BT-549 breast
[10] = tested on: UACC-257 melanoma
[11] = tested on: SNB-19 CNS
[12] = tested on: KM12 colon
[13] = tested on: SK-OV-3 ovarian
[14] = tested on: A498 renal
[15] = tested on: U251 CNS
[16] = tested on: SW-620 colon
[17] = tested on: SK-MEL-28 melanoma
[18] = tested on: COLO 205 colon
[19] = tested on: HL-60(TB) leukemia
[20] = tested on: CCRF-CEM leukemia
[21] = tested on: MCF7 breast
[22] = tested on: HT29 colon
[23] = tested on: PC-3 prostate
[24] = tested on: MDA-N
[25] = tested on: MDA-MB-231 breast
[26] = tested on: SN12C renal
[27] = tested on: LOX IMVI melanoma
[28] = tested on: IGROV1 ovarian
[29] = tested on: CAKI-1 renal
[30] = tested on: MDA-MB-435
[31] = tested on: HCT-15 colon
[32] = tested on: TK-10 renal
[33] = tested on: NCI-H23 lung
[34] = tested on: 786-0 renal
[35] = tested on: HS 578T breast
[36] = tested on: SF-268 CNS
[37] = tested on: SK-MEL-5 melanoma
[38] = tested on: HCC-2998 colon
[39] = tested on: OVCAR-3 ovarian
[40] = tested on: HOP-62 NSCLC
[41] = tested on: K-562 leukemia
[42] = tested on: UACC-62 melanoma
[43] = tested on: ACHN renal
[44] = tested on: UO-31 renal
[45] = tested on: A549 NSCLC
[46] = tested on: OVCAR-8 ovarian
[47] = tested on: HOP-92 NSCLC
[48] = tested on: T-47D breast
[49] = tested on: M14 melanoma
[50] = tested on: OVCAR-5 ovarian
[51] = tested on: MALME-3M melanoma
[52] = tested on: NCI-H226 lung
[53] = tested on: HCT-116 colon
[54] = tested on: SNB-75 CNS
[55] = tested on: NCI-H522 lung
[56] = tested on: RPMI-8226 leukemia
[57] = tested on: SF-295 CNS
[58] = tested on: LXFL 529 NSCLC
[59] = tested on: MOLT-4 leukemia
[60] = tested on: XF 498 CNS
[61] = tested on: M19-MEL melanoma
[62] = tested on: DLD-1 colon
[63] = tested on: KM20L2 colon
[64] = tested on: DMS 273 small cell lung
[65] = tested on: DMS 114 small cell lung
[66] = tested on: SF-539 CNS
[67] = tested on: SNB-78 CNS

Measured: TGI

C[C@]12CCC(=O)C=C1C[C@@H](O)[C@@H]1[C@@H]2CC[C@@]2(C)[C@H]1CC[C@]2(C)O
not listed: [58] | [59] | [60] | [61] | [62] | [63] | [64] | [65] | [66] | [67]
> 100 µM: all other assays above

CC1(c2ccc(F)cc2)C2C(=O)NC(=O)C1C(=O)NC2=O (stereo not given)
not listed: [2] | [3] | [4] | [9] | [15] | [21] | [23] | [24] | [25] | [30] | [35] | [40] | [48] | [53]
> 100 µM: all other assays above
